Results: patent US6355453B1, “Method for making fluorinated sugars having a side chain and use thereof” (Forschungszentrum Julich GmbH, priority 1998, dated 2002)
pKi: −log10 of the molar value.

What was measured:
[1] = biological target: T1, N-acetylneuraminic acid aldolase (Escherichia coli, UniProt P0A6L4); assay: Kinetic study of the aldolase-catalysed ManNAc/F-pyr reaction (Equation 1, non-linear regression of initial-rate data)
[2] = biological target: T1, N-acetylneuraminic acid aldolase; conditions: value given in the literature; read-out: Km value for the standard ManNAc/Pyr reaction; cited from earlier work
O=C(O)C(=O)CF = assay: purified protein, by the assay type; conditions: other: ManNAc/F-pyr reaction, 24 U*/ml aldolase, pH 7.5, 25° C.

With `O=C(O)C(=O)CF` [F-Pyr, 1-fluoro-2-oxopropanoic acid] the pKi [1] was 1.31 and the “maximal activity of the reaction” value ([1]; enzyme charge of >24 U*/mg) was 0.9 U/mg.

In the case of `CC(=O)C(=O)O` [Pyr, pyruvic acid], the Km [2] is listed as 8.5 mM.

In the case of “N-acetylneuraminic acid aldolase (Escherichia coli K-12)”, the Km (O=C(O)C(=O)CF) was 41 mM.
